This passage reports TGI and GI50 results from PubChem BioAssay (NCI).

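Compound exposure: 48 hours, 5 concentrations, 96-well plates. Abbreviation: GI50, concentration required for 50% inhibition of growth. TGI: total growth inhibition.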

Assay in all cases: NCI-60 cell line screen, 48 h
Assay [1] concerns 786-0 renal.
Assay [2] deals with A549 NSCLC.
For assay [3], the system named is CCRF-CEM leukemia.
Assay [4] has as its system HCT-15 colon.
Assay [5] deals with NCI-H226 lung.
The test system of assay [6] is OVCAR-3 ovarian.
The test system of assay [7] is SK-OV-3 ovarian.
Assay [8] has as its system SNB-75 CNS.
Assay [9] deals with UACC-257 melanoma.
The subject of assay [10] is UACC-62 melanoma.

As to `CC(=O)OC[C@@H](COC(=O)/C=C/c1ccc(O)cc1)OC1OC(CO)C(O)C(O)C1O` (stereo not given in full), the TGI in assay [1], in [2], in assay [3], in assay [4], in assay [5] and in [6] was above 100 µM throughout. In addition, the TGI in assay [7], in assay [8], in [9] and in assay [10] was above 100 µM each time.
Take `O=c1c(Br)cc2nc3ccccc3sc-2c1Br`: the TGI in assay [1] is 30.8 µM; in assay [2] it was above 100 µM; in assay [3], above 100 µM; in [4], above 100 µM; in assay [5] it was above 100 µM; in assay [6], 32.5 µM. Besides, the TGI in assay [7] is above 100 µM; in assay [8], above 100 µM; in assay [9] it was above 85.4 µM; in assay [10] it was 79.8 µM.
As to `CCN(CC)CCCNCc1cc(-c2ccccc2)nc2ccccc12`, the GI50 in [1] was 11.1 µM; in [2], 81.6 µM; in assay [3], 2.22 µM; in assay [4] it was 3.24 µM; in [5], 19.8 µM; in assay [6] it was 4.13 µM. Besides, the GI50 was 52.1 µM in [7], 12.3 µM in assay [8], 5.11 µM in assay [9] and 2.55 µM in assay [10]. The TGI in [1] is 28.3 µM; in assay [2] it was above 100 µM; in [3], above 100 µM; in assay [4] it was 45.8 µM; in assay [5] it was above 100 µM; in assay [6] it was above 100 µM. Besides, the TGI in [7] was above 100 µM; in assay [8] it was 35.8 µM; in assay [9], 18.3 µM; in assay [10] it was 8.37 µM.
`CCN(CC)CC(O)CNc1c2ccc([N+](=O)[O-])cc2nc2cc(OC)c(OC)cc12` (stereo not given): the GI50 in assay [1] was 0.659 µM; in assay [2], 0.262 µM; in assay [3] it was 0.517 µM; in [4], 0.854 µM; in [5] it was 0.392 µM; in assay [6], 0.207 µM. Moreover, the GI50 in assay [7] was 0.535 µM; in [8], 0.488 µM; in [9] it was 1.45 µM; in assay [10], 0.453 µM. Moreover, the TGI in [1] was determined as 3.88 µM; in assay [2], 0.854 µM; in [3] it was 10.4 µM; in assay [4], 3.6 µM; in [5] it was 2.01 µM; in assay [6] it was 0.543 µM. The TGI stood at 2.84 µM in assay [7], 1.88 µM in assay [8], 3.83 µM in [9] and 1.8 µM in assay [10].
Take `Oc1ccc(-c2nc3ccccc3s2)cc1CN(Cc1ccccn1)Cc1ccccn1`: the GI50 in assay [1] was 0.353 µM; in [2], 0.833 µM; in [3], 1.09 µM; in [4] it was 0.149 µM; in [5] it was 0.21 µM; in assay [6], 2.73 µM. The GI50 in assay [7] was 1.35 µM; in [8] it was 1.22 µM; in [9], 3.1 µM; in assay [10], 1.24 µM. The TGI in assay [1] is 10.1 µM; in assay [2], 18.5 µM; in assay [3], above 100 µM; in assay [4], 14.3 µM; in assay [5], 3.5 µM; in assay [6] it was 18.1 µM. The TGI was found to be 43.5 µM in assay [7], 15.3 µM in [8], 13 µM in [9] and 6.66 µM in assay [10].
`C[As](C)SCC(COC(=O)C(Cl)c1ccccc1)OC(=O)C(Cl)c1ccccc1` (stereo not given): the GI50 was 0.884 µM in assay [1]; 3.84 µM in [2]; 0.339 µM in [3]; 0.229 µM in [4]; 20.1 µM in assay [5]; 0.179 µM in assay [6]. The GI50 is 2.63 µM in [7], 10.6 µM in assay [8], 0.332 µM in assay [9] and 3.19 µM in assay [10]. Also, the TGI in assay [1] was 8.05 µM; in [2], 15.2 µM; in assay [3], 2.14 µM; in assay [4], 4.02 µM; in assay [5], 41.8 µM; in assay [6], 0.474 µM. The TGI in [7] was above 54.9 µM; in assay [8], 42.6 µM; in assay [9] it was 12.6 µM; in assay [10] it was 52.9 µM.
For `C[C@@]12CCC[C@@](C)(C(=O)O)C1CC[C@]13C[C@@](O)(CO)[C@](O)(CCC12)C3` (stereo not given in full), the GI50 in assay [1], in assay [2], in assay [3], in assay [4], in [5] and in [6] was above 100 µM each time. Further, the GI50 in assay [7], in assay [8], in assay [9] and in assay [10] was above 100 µM in each case. The TGI in assay [1], in assay [2], in assay [3], in [4], in [5] and in [6] was above 100 µM in each case. For the same compound, the TGI in assay [7], in assay [8], in [9] and in assay [10] was above 100 µM in each case.
In the case of `C/C1=C/C(=O)O[C@@H]2C[C@@H](CC[C@H](C)/C=C\C=C\CC1)O[C@@](O)([C@@H]1CSC(=O)N1)C2`, the TGI in assay [1] was above 10 µM; in assay [2], above 10 µM; in assay [3] it was above 10 µM; in assay [4], above 10 µM; in [5], above 2.9 µM; in assay [6], 4.25 µM. The TGI in [7] was above 9.4 µM; in assay [8], 0.332 µM; in assay [9], above 10 µM; in assay [10], above 10 µM.
